Measured values published in patent US8916599B2, “1H-benz imidazole-5-carboxamides as anti-inflammatory agents” (Orexo AB, priority 2008, dated 2014).

target: T1, recombinant human mPGES-1 (Homo sapiens, UniProt O14684); assay: mPGES-1 inhibition test (microsomes, PGH2 substrate, HTRF detection of PGE2); type: biochemical; conditions: inhibition of mPGES-1 at 10 μM
T1 construct: made in house; host or cells: Rosetta E. coli (microsomal/membrane fraction)
T1 sequence (O14684 1-152): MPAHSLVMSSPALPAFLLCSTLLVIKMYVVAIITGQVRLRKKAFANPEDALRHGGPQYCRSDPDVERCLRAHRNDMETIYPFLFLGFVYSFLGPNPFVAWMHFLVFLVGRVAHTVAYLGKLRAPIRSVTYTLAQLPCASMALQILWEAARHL
Procedure, shortened: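 Microsomes from E. coli expressing recombinant human mPGES-1 in 0.1 M KPi pH 7.4 with 2.5 mM GSH were preincubated with inhibitor 25 min at room temperature. PGH2 was then added, and the reaction was stopped after 1 min with acidified FeCl2. PGE2 was quantified by HTRF (665/620 nm ratio) against a synthetic PGE2 standard curve.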

Row | Structure (SMILES) | inhibition at 10 µM [%]
1 | C[C@@H]1CCC(NC(=O)c2cc3nc(Nc4c(F)cccc4Cl)n(C)c3cc2F)C1 (stereo partly drawn) [Example 501, 2-(2-Chloro-6-fluorophenylamino)-6-fluoro-1-methyl-N-((3R)-3-methylcyclopentyl)-1H-benzimidazole-5-carboxamide] | 98
2 | Cn1c(Nc2c(F)cccc2Cl)nc2cc(C(=O)NCCC3CC3)c(F)cc21 [Example 502, 2-(2-Chloro-6-fluorophenylamino)-N-(2-cyclopropylethyl)-6-fluoro-1-methyl-1H-benzimidazole-5-carboxamide] | 96
3 | COc1cc2nc(Nc3c(Cl)cccc3Cl)[nH]c2cc1C(=O)NCc1ncccc1C [Example 507, 2-(2,6-Dichlorophenylamino)-6-methoxy-N-((3-methylpyridin-2-yl)-methyl)-1H-benzimidazole-5-carboxamide] | 98
4 | Cc1cccnc1CNC(=O)c1cc2nc(Nc3c(Cl)cccc3Cl)n(C)c2cc1F [Example 510, 2-(2,6-Dichlorophenylamino)-6-fluoro-1-methyl-N-((3-methylpyridin-2-yl)methyl)-1H-benzimidazole-5-carboxamide] | 99
5 | Cc1ccc(Nc2nc3cc(C(=O)Nc4ccc(Br)cc4)ccc3n2C)c(Cl)c1 [Example 512, N-(4-Bromophenyl)-2-(2-chloro-4-methylphenylamino)-1-methyl-1H-benzimidazole-5-carboxamide] | 99
6 | O=C(NC1CCCCC1)c1cc(Br)c2[nH]c(Nc3c(Cl)cccc3Cl)nc2c1 [Example 514, 7-Bromo-N-cyclohexyl-2-(2,6-dichlorophenylamino)-1H-benzimidazole-5-carboxamide] | 95
7 | Cn1c(Nc2c(Cl)cccc2Cl)nc2cc(C(=O)NCC3CCC3)c(F)cc21 [Example 516, N-(Cyclobutylmethyl)-2-(2,6-dichlorophenylamino)-6-fluoro-1-methyl-1H-benzimidazole-5-carboxamide] | 97
8 | Cn1c(Nc2ccc(Cl)cc2Cl)nc2cc(C(=O)Nc3ccc(Br)cc3)ccc21 [Example 519, N-(4-Bromophenyl)-2-(2,4-dichlorophenylamino)-1-methyl-1H-benzimidazole-5-carboxamide] | 95
9 | Cn1c(Nc2c(Cl)cccc2Cl)nc2cc(C(=O)Nc3cc(C#N)ccn3)ccc21 [Example 524, N-(4-Cyanopyridin-2-yl)-2-(2,6-dichlorophenylamino)-1-methyl-1H-benzimidazole-5-carboxamide] | 98
10 | COc1cc2[nH]c(Nc3c(Cl)cccc3Cl)nc2cc1C(=O)NCc1ncccc1OC [Example 525, 2-(2,6-Dichlorophenylamino)-6-methoxy-N-((3-methoxypyridin-2-yl)methyl)-1H-benzimidazole-5-carboxamide] | 98
11 | Cn1c(Nc2cc(S(C)(=O)=O)ccc2Cl)nc2cc(C(=O)Nc3ccc(Br)cc3)ccc21 [Example 526, N-(4-Bromophenyl)-2-(2-chloro-5-(methylsulfonyl)phenylamino)-1-methyl-1H-benzimidazole-5-carboxamide] | 93
12 | COc1cccnc1CNC(=O)c1cc2nc(Nc3c(Cl)cccc3Cl)n(C)c2cc1F [Example 529, 2-(2,6-Dichlorophenylamino)-6-fluoro-N-((3-methoxypyridin-2-yl)methyl)-1-methyl-1H-benzimidazole-5-carboxamide] | 93
13 | Cn1c(Nc2c(Cl)cccc2Cl)nc2cc(C(=O)Nc3cc(N4CCCCC4)ccn3)c(F)cc21 [Example 533, 2-(2,6-Dichlorophenylamino)-6-fluoro-1-methyl-N-(4-(piperidin-1-yl)-pyridin-2-yl)-1H-benzimidazole-5-carboxamide] | 91
14 | Cc1ccnc(CNC(=O)c2cc3nc(Nc4c(Cl)cccc4Cl)n(C)c3cc2F)c1 [Example 534, 2-(2,6-Dichlorophenylamino)-6-fluoro-1-methyl-N-((4-methylpyridin-2-yl)methyl)-1H-benzimidazole-5-carboxamide] | 80
15 | Cn1c(Nc2c(Cl)cccc2Cl)nc2cc(C(=O)NCc3ncccc3F)c(F)cc21 [Example 536, 2-(2,6-Dichlorophenylamino)-6-fluoro-N-((3-fluoropyridin-2-yl)methyl)-1-methyl-1H-benzimidazole-5-carboxamide] | 89
16 | Cn1c(Nc2cc(C(N)=O)ccc2Cl)nc2cc(C(=O)Nc3ccc(Br)cc3)ccc21 [Example 537, N-(4-Bromophenyl)-2-(5-carbamoyl-2-chlorophenylamino)-1-methyl-1H-benzimidazole-5-carboxamide] | 99

Row | Structure (SMILES) | inhibition at 10 µM [%]
17 | C#Cc1ccccc1Nc1nc2cc(C(=O)Nc3ccc(Br)cc3)ccc2n1C [Example 538, N-(4-Bromophenyl)-2-(2-ethynylphenylamino)-1-methyl-1H-benzimidazole-5-carboxamide] | 85
18 | N#Cc1ccnc(NC(=O)c2ccc3[nH]c(Nc4c(Cl)cccc4Cl)nc3c2)c1 [Example 539, N-(4-Cyanopyridin-2-yl)-2-(2,6-dichlorophenylamino)-1H-benzimidazole-5-carboxamide] | 94
19 | CNC(=O)c1ccc(Nc2nc3cc(C(=O)Nc4ccc(Br)cc4)ccc3n2C)c(Cl)c1 [Example 540, N-(4-Bromophenyl)-2-(2-chloro-4-(methylcarbamoyl)-phenylamino)-1-methyl-1H-benzimidazole-5-carboxamide] | 44
20 | Cn1c(Nc2c(Cl)cc(F)cc2Cl)nc2cc(C(=O)NCc3ncccc3C(F)(F)F)ccc21 [Example 542, 2-(2,6-Dichloro-4-fluorophenylamino)-1-methyl-N-((3-trifluoromethyl-pyridin-2-yl)methyl)-1H-benzimidazole-5-carboxamide] | 97
21 | Cn1c(Nc2ccc(C(N)=O)cc2Cl)nc2cc(C(=O)Nc3ccc(Br)cc3)ccc21 [Example 543, N-(4-Bromophenyl)-2-(4-carbamoyl-2-chlorophenylamino)-1-methyl-1H-benzimidazole-5-carboxamide] | 91
22 | CCc1ccc(C)nc1NC(=O)c1ccc2c(c1)nc(Nc1c(Cl)cccc1Cl)n2C [Example 545, 2-(2,6-Dichlorophenylamino)-N-(3-ethyl-6-methylpyridin-2-yl)-1-methyl-1H-benzimidazole-5-carboxamide] | 89
23 | Cn1c(Nc2c(F)cccc2Cl)nc2cc(C(=O)NCC3CC3)c(F)cc21 [Example 546, 2-(2-Chloro-6-fluorophenylamino)-N-(cyclopropylmethyl)-6-fluoro-1-methyl-1H-benzimidazole-5-carboxamide] | 85
24 | Cn1c(Nc2c(Cl)cccc2Cl)nc2cc(C(=O)NCc3ccccn3)c(F)cc21 [Example 548, 2-(2,6-Dichlorophenylamino)-6-fluoro-1-methyl-N-(pyridin-2-ylmethyl)-1H-benzimidazole-5-carboxamide] | 93
25 | CN(C)c1cccc(F)c1Nc1nc2cc(C(=O)Nc3ccc(Br)cc3)ccc2n1C [Example 551, N-(4-Bromophenyl)-2-(2-dimethylamino-6-fluorophenylamino)-1-methyl-1H-benzimidazole-5-carboxamide] | 94
26 | Cn1c(Nc2c(Cl)cccc2Cl)nc2cc(C(=O)Nc3cc(N4CCCC4)ccn3)c(F)cc21 [Example 554, 2-(2,6-Dichlorophenylamino)-6-fluoro-1-methyl-N-(4-(pyrrolidin-1-yl)-pyridin-2-yl)-1H-benzimidazole-5-carboxamide] | 84
27 | Cn1c(Nc2ccc(C(F)(F)F)cc2Cl)nc2cc(C(=O)Nc3ccc(Br)cc3)ccc21 [Example 556, N-(4-Bromophenyl)-2-(2-chloro-4-trifluoromethyl-phenylamino)-1-methyl-1H-benzimidazole-5-carboxamide] | 74
28 | O=C(Nc1ccc(Br)cc1)c1ccc2[nH]c(Nc3c(Cl)cccc3OC(F)(F)F)nc2c1 [Example 557, N-(4-Bromophenyl)-2-(2-chloro-6-(trifluoromethoxy)phenylamino)-1H-benzimidazole-5-carboxamide] | 69
29 | CCc1ccc(C)nc1NC(=O)c1ccc2[nH]c(Nc3c(Cl)cccc3Cl)nc2c1 [Example 558, 2-(2,6-Dichlorophenylamino)-N-(3-ethyl-6-methylpyridin-2-yl)-1H-benzimidazole-5-carboxamide] | 77
30 | Cn1c(Nc2c(Cl)cccc2Cl)nc2cc(C(=O)NC3CCN(C4CC4)CC3)c(F)cc21 [Example 561, N-(1-Cyclopropylpiperidin-4-yl)-2-(2,6-dichlorophenylamino)-6-fluoro-1-methyl-1H-benzimidazole-5-carboxamide] | 77
31 | CN(C)C(=O)c1ccc(Nc2nc3cc(C(=O)Nc4ccc(Br)cc4)ccc3n2C)c(Cl)c1 [Example 562, N-(4-Bromophenyl)-2-(2-chloro-4-(dimethylcarbamoyl)-phenylamino)-1-methyl-1H-benzimidazole-5-carboxamide] | 97
32 | Cn1c(CNC(=O)c2cc3nc(Nc4c(Cl)cccc4Cl)n(C)c3cc2F)nc2ccccc21 [Example 563, 2-(2,6-Dichlorophenylamino)-6-fluoro-1-methyl-N-((1-methyl-1H-benzo[d]imidazol-2-yl)methyl)-1H-benzimidazole-5-carboxamide] | 75

same assay, conditions: inhibition of mPGES-1 at 10 μM; 10 µM

Row | Structure (SMILES) | % inhib. [%]
33 | Cn1c(Nc2c(Cl)cccc2Cl)nc2cc(C(=O)NCc3ccccn3)c(F)cc21 [Example 552, 2-(2,6-Dichlorophenylamino)-6-fluoro-1-methyl-N-(pyridin-2-ylmethyl)-1H-benzimidazole-5-carboxamide] | 77
